Like-named read-outs stand apart in the source and are kept apart here.
Assays:
[1] = molecular target: Beta Secretase enzyme (BACE) (Homo sapiens, UniProt P56817); experiment: In vitro enzymatic BACE FRET (fluorescence resonance energy transfer) assay; format: biochemical;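 also: fluorescence read after 1 h with 50 nM quenched peptide substrate spanning the BACE cleavage site, in pH 4.2 acetate buffer containing 10% DMSO and nonionic detergent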
[2] = system: Aβ40 in conditioned medium of cells stably expressing Amyloid Precursor Protein (APP); experiment: In vitro BACE cell-based assay (Aβ40 in conditioned medium, sandwich ELISA); conditions: Homo sapiens;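 also: compounds added as a dilution series, secreted peptide quantified by europium time-resolved fluorescence readout, potency fitted from percent of control versus compound concentration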
Abeta peptide = experiment: In vivo inhibition of beta-secretase (reduction of Abeta peptide in brain and cerebrospinal fluid); design: species or system rat; conditions: Rattus norvegicus, po, 4 h;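 also: abeta peptide quantified by sandwich ELISA with electrochemiluminescence readout in rat brain supernatant or CSF, relative to vehicle-dosed control animals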
CYP3A4 (CYP3A) = CYP3A4 (CYP3A) (Homo sapiens, UniProt P08684); experiment: in vitro; conditions: microsomes, pH 7.4;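 also: inhibition of CYP3A-mediated 1-hydroxymidazolam formation after 10 min incubation with NADPH, quantified by HPLC MS relative to metabolite produced without test compound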
Chain of CYP3A4 (CYP3A) (P08684 2-503): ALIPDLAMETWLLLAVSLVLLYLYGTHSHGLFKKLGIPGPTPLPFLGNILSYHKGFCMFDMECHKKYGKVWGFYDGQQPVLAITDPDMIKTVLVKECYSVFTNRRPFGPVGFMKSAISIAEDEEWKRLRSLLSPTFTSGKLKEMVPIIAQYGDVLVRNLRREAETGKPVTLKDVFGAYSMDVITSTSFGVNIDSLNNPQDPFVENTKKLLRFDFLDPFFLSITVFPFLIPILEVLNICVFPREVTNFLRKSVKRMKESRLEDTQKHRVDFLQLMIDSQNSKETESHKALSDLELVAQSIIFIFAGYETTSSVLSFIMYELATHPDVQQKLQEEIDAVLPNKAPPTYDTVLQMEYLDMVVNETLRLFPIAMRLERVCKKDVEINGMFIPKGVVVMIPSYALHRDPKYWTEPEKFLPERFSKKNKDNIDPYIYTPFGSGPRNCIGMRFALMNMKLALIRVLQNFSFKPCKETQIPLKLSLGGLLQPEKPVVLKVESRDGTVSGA

[3] = Microsomal stability assay, rat liver microsomes;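 also: rat liver microsomes (0.25 mg/mL) with about 1 µM compound plus 1 mM NADPH, pH 7.4, 37 °C for 30 min, parent left measured by LC-MS/MS against 0 min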
[4] = Microsomal stability assay, human liver microsomes;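 also: pooled human liver microsomes at 0.25 mg/mL with 1 µM compound and NADPH at 37 °C, pH 7.4, for 30 min, unchanged parent quantified by LC-MS/MS against the 0 min sample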
CYP2D6 = CYP2D6 (Homo sapiens, UniProt P10635); experiment: CYP2D6 inhibition assay (bufuralol, pooled human liver microsomes)
Chain of CYP2D6 (P10635 whole entry): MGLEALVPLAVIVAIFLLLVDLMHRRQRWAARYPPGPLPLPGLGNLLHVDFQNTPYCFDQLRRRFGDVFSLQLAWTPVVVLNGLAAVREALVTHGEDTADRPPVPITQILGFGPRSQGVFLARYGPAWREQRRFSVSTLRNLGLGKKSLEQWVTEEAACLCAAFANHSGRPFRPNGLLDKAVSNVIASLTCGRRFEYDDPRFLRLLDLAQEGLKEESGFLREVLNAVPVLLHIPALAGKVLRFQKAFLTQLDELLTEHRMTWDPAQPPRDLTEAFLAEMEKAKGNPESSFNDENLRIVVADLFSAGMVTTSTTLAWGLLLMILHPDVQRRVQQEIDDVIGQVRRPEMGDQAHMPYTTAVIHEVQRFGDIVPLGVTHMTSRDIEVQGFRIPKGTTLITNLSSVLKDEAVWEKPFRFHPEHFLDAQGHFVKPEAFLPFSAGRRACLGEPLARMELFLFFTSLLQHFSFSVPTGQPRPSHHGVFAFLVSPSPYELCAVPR

[5] = rat cerebrospinal fluid, orally administered at 30 mg/kg dose, measured after 4 hours, read-out: percent reduction of abeta peptide in the cerebrospinal fluid of the rat
[6] = 2D6 IC50, CYP enzyme inhibition
[7] = BACE enzyme assay, read-out: BACE1 FRET assay
[8] = HEK293, HEK cells, read-out: HEK cell assay
[9] = rat brain, orally administered at 30 mg/kg dose, measured after 4 hours, read-out: percent reduction of abeta peptide in the brain of the rat
[10] = 2D6 IC50 (uM), CYP enzyme inhibition
[11] = read-out: BACE1 FRET assay (IC50)
[12] = HEK293, HEK cells, read-out: HEK cell assay (IC50)
[13] = BACE enzyme assay, IC50's in uM, read-out: BACE1 FRET assay
[14] = HEK293, cell-based assay, HEK cells, IC50's in uM, read-out: HEK cell assay

Chain of Beta Secretase enzyme (BACE) (P56817 46-501): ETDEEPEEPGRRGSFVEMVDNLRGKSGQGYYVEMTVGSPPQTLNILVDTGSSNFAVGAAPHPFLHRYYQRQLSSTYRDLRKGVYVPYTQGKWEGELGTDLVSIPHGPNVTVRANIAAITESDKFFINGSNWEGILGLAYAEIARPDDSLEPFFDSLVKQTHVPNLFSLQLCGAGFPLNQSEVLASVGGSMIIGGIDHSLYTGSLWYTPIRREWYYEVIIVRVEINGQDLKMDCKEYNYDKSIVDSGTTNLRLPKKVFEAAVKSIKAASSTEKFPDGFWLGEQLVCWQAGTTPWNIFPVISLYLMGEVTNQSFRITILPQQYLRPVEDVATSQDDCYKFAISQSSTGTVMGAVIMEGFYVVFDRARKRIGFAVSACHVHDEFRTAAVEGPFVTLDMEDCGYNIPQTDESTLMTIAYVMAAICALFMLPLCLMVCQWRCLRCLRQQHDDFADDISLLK

| SMILES | IC50 ([1]; Table 2, read-out: BACE1 FRET assay) [µM] | IC50 ([2]; HEK293, Table 2, HEK cells, read-out: HEK cell assay) [µM] | inhibition in vivo at 30 mg/kg (Abeta peptide; [5]) [%] | IC50 (CYP3A4 (CYP3A)) [nM] | RLM ([3]; rat liver microsomal data) [µL/min/mg] | HLM ([4]; human liver microsomal data) [µL/min/mg] | IC50 (CYP2D6; [6]) [µM] | IC50 [1, 7] [µM] | IC50 [2, 8] [µM] | inhibition in vivo at 30 mg/kg (Abeta peptide; [9]) [%] | IC50 (CYP2D6; [10]) [µM] | IC50 [1, 11] [µM] | IC50 [2, 12] [µM] | RLM ([3]; rat liver microsomes) [µL/min/mg] | HLM ([4]; human liver microsomes) [µL/min/mg] | IC50 (CYP2D6; 2D6 IC50, CYP2D6 inhibition) [µM] | IC50 [1, 13] [µM] | IC50 [2, 14] [µM] | inhibition in vivo at 30 mg/kg (Abeta peptide; read-out: percent reduction of abeta peptide in the brain of the rat) [%] |
| --- | --- | --- | --- | --- | --- | --- | --- | --- | --- | --- | --- | --- | --- | --- | --- | --- | --- | --- | --- |
| COCC(=O)N[C@@H](Cc1ccc(F)cc1)[C@H](O)CN[C@H]1CC2(CCC2)Oc2c1cc(CC(C)C)cc2-n1ccnc1 [Example 478] | 0.056 | 0.068 | 10 to 80 | 100 | 157 | 24 | 2.2 |  |  |  |  |  |  |  |  |  |  |  |  |
| COCC(=O)N[C@@H](Cc1cc(F)cc(F)c1)[C@H](O)CN[C@H]1CC2(CCC2)Oc2c(-c3ccncc3)cc(CC(C)(C)C)cc21 [Example 488] |  |  | 10 to 80 | 100 | 82 | 31 |  | 0.009 | 0.01 | 5 to 80 | 1.6 |  |  |  |  |  |  |  |  |
| COCC(=O)N[C@@H](Cc1cccc(F)c1)[C@H](O)CN[C@H]1CC2(CCC2)Oc2c1cc(CC(C)(C)C)nc2-n1ccnc1 [Example 504] |  |  | 10 to 80 | 100 | 87 | 16 |  | 0.014 | 0.028 |  | 2.3 |  |  |  |  |  |  |  |  |
| CC(=O)N[C@@H](Cc1cccc(F)c1)[C@H](O)CN[C@H]1CC2(CCC2)Oc2c1cc(CC(C)(C)C)nc2-n1ccnc1 [Example 506] |  |  | 10 to 80 | 100 | 61 | 14 |  | 0.021 | 0.02 |  | 2.2 |  |  |  |  |  |  |  |  |
| CC(C)(C)Cc1cnc2c(c1)[C@@H](NC[C@@H](O)[C@H](Cc1ccc3c(c1)OCO3)NC(=O)[C@H]1CCO1)CC1(CCC1)O2 [Example 516, (2R)-N-((1S,2R)-1-(1,3-benzodioxol-5-ylmethyl)-3-(((4′S)-6′-(2,2-dimethylpropyl)-3′,4′-dihydrospiro[cyclobutane-1,2′-pyrano[2,3-b]pyridin]-4′-yl)amino)-2-hydroxypropyl)-2-oxetanecarboxamide] |  |  | 10 to 80 | 100 | 94 | 31 |  | 0.018 | 0.02 |  | 3.3 |  |  |  |  |  |  |  |  |
| CO[C@H](C)C(=O)N[C@@H](Cc1cccc(F)c1)[C@H](O)CN[C@H]1CC2(CCC2)Oc2c1cc(CC(C)C)cc2-n1ccnc1 [Example 521] |  |  | 10 to 80 | 100 | 142 | 27 |  | 0.019 | 0.015 |  | 1.9 |  |  |  |  |  |  |  |  |
| COC(OC)C(=O)N[C@@H](Cc1ccc2c(c1)OCO2)[C@H](O)CN[C@H]1CC2(CCC2)Oc2ncc(CC(C)(C)C)cc21 [Example 523, N-((1S,2R)-1-(1,3-benzodioxol-5-ylmethyl)-3-(((4′S)-6′-(2,2-dimethylpropyl)-3′,4′-dihydrospiro[cyclobutane-1,2′-pyrano[2,3-b]pyridin]-4′-yl)amino)-2-hydroxypropyl)-2,2-dimethoxyacetamide] |  |  | 10 to 80 | 100 | 94 | 37 |  | 0.019 | 0.033 | 5 to 80 | 5.4 |  |  |  |  |  |  |  |  |
| COCC(=O)N[C@@H](Cc1cc(F)cc(F)c1)[C@H](O)CN[C@H]1CC2(CCC2)Oc2c1cc(CC(C)(C)C)nc2-c1ccncc1 [Example 528] |  |  | 10 to 80 | 100 | 72 | 19 |  | 0.01 | 0.023 |  | 1.3 |  |  |  |  |  |  |  |  |
| COCC(=O)N[C@@H](Cc1cccc(F)c1)[C@H](O)CN[C@H]1CC2(CCC2)Oc2c(-c3ccncc3)cc(CC(C)(C)C)cc21 [Example 535] |  |  | 10 to 80 | 100 | 79 | 49 |  | 0.009 | 0.006 |  | 2.5 |  |  |  |  |  |  |  |  |
| COCC(=O)N[C@@H](Cc1ccccc1)[C@H](O)CN[C@H]1CC2(CCC2)Oc2c1cc(CC(C)(C)C)nc2-c1ccncc1 [Example 541] |  |  | 10 to 80 | 100 | 192 | 31 |  | 0.02 | 0.055 |  | 2.1 |  |  |  |  |  |  |  |  |
| CC(=O)N[C@@H](Cc1ccccc1)[C@H](O)CN[C@H]1CC2(CCC2)Oc2c1cc(CC(C)(C)C)nc2-c1ccncc1 [Example 542] |  |  | 10 to 80 | 200 | 193 | 36 |  | 0.024 | 0.103 |  | ≥ 27 |  |  |  |  |  |  |  |  |
| COCC(=O)N[C@@H](Cc1ccc2c(c1)OCO2)[C@H](O)CN[C@H]1CC2(CCC2)Oc2ncc([C@@H]3CC3(C)C)cc21 [Example 575, N-((1S,2R)-1-(1,3-benzodioxol-5-ylmethyl)-3-(((4′S)-6′-((1R)-2,2-dimethylcyclopropyl)-3′,4′-dihydrospiro[cyclobutane-1,2′-pyrano[2,3-b]pyridin]-4′-yl)amino)-2-hydroxypropyl)-2-methoxyacetamide] |  |  | 10 to 80 | 100 |  |  |  |  |  |  |  | 0.01 | 0.016 | 194 | 33 | 1.5 |  |  |  |
| CO[C@H](C)C(=O)N[C@@H](Cc1ccc2c(c1)OCO2)[C@H](O)CN[C@H]1CC2(CCC2)Oc2ncc([C@@H]3CC3(C)C)cc21 [Example 578] |  |  |  | 100 |  |  |  |  |  | 5 to 80 |  | 0.018 | 0.019 | 185 | 36 | 2 |  |  |  |
| COCC(=O)N[C@@H](Cc1cc(F)cc(F)c1)[C@H](O)CN[C@H]1CC2(CCC2)Oc2c1cc(CC(C)(C)C)nc2-c1nccn1C [Example 596] |  |  | 10 to 80 | 100 |  |  |  |  |  |  |  | 0.041 | 0.009 | 39 | 26 | 2.9 |  |  |  |
| COCC(=O)N[C@@H](Cc1ccncc1)[C@H](O)CN[C@H]1CC2(CCC2)Oc2c(-c3ccncc3)cc(CC(C)C)cc21 [Example 628] |  |  | 10 to 80 | 100 |  |  |  |  |  |  |  | 0.045 | 0.007 | 239 | 94 | 1.9 |  |  |  |
| COCC(=O)N[C@@H](Cc1cccc(C#N)c1)[C@H](O)CN[C@H]1CC2(CCC2)Oc2c(-c3ccncc3)cc(CC(C)(C)C)cc21 [Example 636] |  |  | 10 to 80 | 100 |  |  |  |  |  |  |  | 0.008 | 0.005 | 90 | 32 | 3 |  |  |  |
| CC(=O)N[C@@H](Cc1ccc(F)c(-c2nccs2)c1)[C@H](O)CN[C@H]1CC2(CCC2)Oc2ccc(CC(C)(C)C)cc21 [Example 640] |  |  | 10 to 80 | 700 |  |  |  |  |  |  |  | 0.006 | 0.053 | 113 | 59 | 0.3 |  |  |  |
| C#Cc1cc(C[C@H](NC(=O)C(OC)OC)[C@H](O)CN[C@H]2CC3(CCC3)Oc3ncc(CC(C)(C)C)cc32)ccc1F [Example 861] |  |  | ≥ 50 |  | 64 | 28 | 2.1 |  |  |  |  |  |  |  |  |  | 0.008 | 0.018 |  |
| C#Cc1cccc(C[C@H](NC(=O)CC)[C@H](O)CN[C@H]2CC3(CCC3)Oc3ncc(CC(C)(C)C)cc32)c1 [Example 873] |  |  | ≥ 50 |  | 29 | 35 | 0.8 |  |  |  |  |  |  |  |  |  | 0.003 | 0.007 |  |
| CC(C)(C)Cc1cnc2c(c1)[C@@H](NC[C@@H](O)[C@H](Cc1cc(F)cc(-c3nccs3)c1)NC(=O)CF)CC1(CCC1)O2 [Example 878] |  |  |  | 200 | 65 | 72 |  |  |  |  |  |  |  |  |  |  | 0.004 | 0.022 | 5 to 80 |
| CC(C)C(=O)N[C@@H](Cc1cc(F)cc(-c2nccs2)c1)[C@H](O)CN[C@H]1CC2(CCC2)Oc2ncc(CC(C)(C)C)cc21 [Example 883] |  |  | 10 to 80 | 100 | 52 | 54 |  |  |  |  |  |  |  |  |  |  | 0.021 | 0.021 |  |
| COCC(=O)N[C@@H](Cc1cc(-c2nccs2)ccc1F)[C@H](O)CN[C@H]1CC2(CCC2)Oc2ncc(CC(C)(C)C)cc21 [Example 900] |  |  | 10 to 80 | ≥ 27000 |  |  | ≥ 27 |  |  |  |  |  |  |  |  |  |  |  |  |

Source: patent US8163909B2, “Substituted hydroxyethyl amine compounds as beta-secretase modulators and methods of use” (Amgen Inc., priority 2007, dated 2012)
